Data on one compound can be found in US11089783B2, “2-(het)aryl-substituted fused heterocycle derivatives as pesticides” (Bayer Aktiengesellschaft, priority 2017, dated 2021).

Molecules are shown by their SMILES.

Holding throughout (type): in vivo
Experiment [1] has as its system Tetranychus urticae. In words: Tetranychus urticae spray test, OP-resistant (TETRUR). The settings on record: Tetranychus urticae, 144 h, TETRUR, 6 dat, read-out: % efficacy. How it is done:
[table] To produce a suitable active ingredient formulation, 1 part by weight of active ingredient is dissolved with the specified parts by weight of solvent and made up to the desired concentration with water containing an emulsifier concentration of 1000 ppm. To produce further test concentrations, the formulation is diluted with emulsifier-containing water. Discs of bean leaves (Phaseolus vulgaris) infested with all stages of the greenhouse red spider mite (Tetranychus urticae) are sprayed with an active ingredient formulation of the desired concentration. After 6 days, the efficacy in % is determined. 100% means that all the spider mites have been killed; 0% means that no spider mites have been killed.

Experiment [2] relates to Nezara viridula. The experiment can be described thus: Nezara viridula spray test (NEZARA / NEZAVI). The settings on record: Nezara viridula, 96 h, 4 g/ha, 4 dat, read-out: % efficacy. In a few lines:
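Barley plants infested with Nezara viridula larvae were sprayed with active ingredient in solvent/emulsifier water (1000 ppm emulsifier; ammonium salt or penetrant at 1000 ppm if added). Efficacy scored as % mortality after the set time (100% = all bugs killed).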

Experiment [3] relates to Diabrotica balteata. The experiment can be described thus: Diabrotica balteata drench test (DIABBA). The note with it: soil, 192 h, 8 dat, read-out: % efficacy. How it is done: [table] To produce an appropriate active ingredient formulation, 1 part by weight of active ingredient is mixed with the specified amounts of solvent and emulsifier and the concentrate is diluted to the desired concentration with water, it being necessary to take into account the volume of soil into which drenching is effected. It should be ensured that a concentration of 40 ppm of emulsifier in the soil is not exceeded. For production of further test concentrations, the mixture is diluted with water. 5 maize kernels in each case are sown into soil-filled pots (Zea mays) and, the next day, drenched with the active ingredient formulation of the desired concentration. After one day, about 25 L2 larvae of the banded cucumber beetle (Diabrotica balteata) were added. After 8 days, the efficacy in % is determined. 100% means that all 5 plants have germinated and grown; 0% means that no plant has emerged.

In experiment [4] the test system is Aphis gossypii. The experiment can be described thus: Aphis gossypii spray test (APHIGO), cotton plants. The settings on record: Aphis gossypii, 144 h, 4 ppm, 6 dat, read-out: % efficacy. Summed up: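 Cotton plants (Gossypium hirsutum) heavily infested with cotton aphids were sprayed with the active ingredient formulated in emulsifier-containing water (1000 ppm emulsifier), with ammonium salt or penetrant added at 1000 ppm where required. After the set time, percent kill was determined, where 100% means all aphids dead.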

In experiment [5] the test system is Phaedon cochleariae. In words: Phaedon cochleariae spray test (PHAECO S), cabbage leaves. The note with it: Phaedon cochleariae, 168 h, 7 dat, read-out: % efficacy. How it is done:
[table] To produce an appropriate active ingredient formulation, 1 part by weight of active ingredient is dissolved with the specified parts by weight of solvent and made up with water containing an emulsifier concentration of 1000 ppm until the desired concentration is attained. To produce further test concentrations, the mixture is diluted with emulsifier-containing water. If addition of ammonium salts or/and penetrants is required, these are each added to the preparation solution in a concentration of 1000 ppm. Cabbage leaves (Brassica oleracea) are sprayed with an active ingredient formulation of the desired concentration and populated with larvae of the mustard beetle (Phaedon cochleariae). After the desired time, the kill in % is determined. 100% means that all beetle larvae have been killed; 0% means that no beetle larvae have been killed.

The subject of experiment [6] is Meloidogyne incognita. In words: Meloidogyne incognita drench test (MELGIN D). The note with it: soil, 504 h, 21 dat, read-out: % efficacy. As for the experimental part:
[table] To produce an appropriate active ingredient formulation, 1 part by weight of active ingredient is mixed with the specified amounts of solvent and emulsifier and the concentrate is diluted to the desired concentration with water, it being necessary to take into account the volume of soil into which drenching is effected. It should be ensured that a concentration of 20 ppm of emulsifier in the soil is not exceeded. For production of further test concentrations, the mixture is diluted with water. Pots filled with soil (loamy sand) are drenched with the active ingredient solution. An egg/larvae suspension of the southern root-knot nematode (Meloidogyne incognita) is added, and lettuce seeds are scattered over the soil surface and covered with quartz sand. The lettuce seeds germinate and the seedlings develop. The root-knots develop on the roots. After the desired time, the nematicidal effect is determined with reference to the root-knot formation in %. 100% means that no root-knots were found; 0% means that the number of root-knots on the treated plants corresponds to that on the untreated control.

Consider `CCS(=O)(=O)c1ccc(NC(=O)NC)nc1-c1nc2cc(C(F)(F)F)nnc2n1C` [reference compound], for which the Emax at 20 g/ha in experiment [1] (20 g/ha) came out at 0%. Also, in experiment [1] (100 g/ha), the Emax at 100 g/ha worked out at 0%. Besides, the Emax at 4 g/ha in experiment [2] stood at 0%. The Emax at 20 ppm in experiment [3] and in experiment [5] (20 ppm) was 0% in each case. The Emax at 4 ppm is 25% in experiment [4] and 0% in experiment [5] (4 ppm). For the same compound, the Emax at 1 ppm in experiment [6] (1 ppm) worked out at 0%. Moreover, the Emax at 2 ppm in experiment [6] (2 ppm) was 50%.
